# Results from the supplement of paper PMC10307832.
# Tests used:
# ALW-II-49-7 = compound: Cc1ccc(C(=O)Nc2cccc(C(F)(F)F)c2)cc1Nc1cncc(C(N)=O)c1 [ALW-II-49-7]; assay: relative viability (nuclei count vs DMSO), 5 days (fraction); higher = more cells survive
# How it was run: (§1)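 Five library-drug doses spaced by √10 were pinned onto vehicle-anchored 1536-well plates of lung cancer cell lines that had been kept overnight at 37 °C. Cells went 5 days without medium change, then were fixed, permeabilised and Hoechst-stained together, imaged at 4× and counted by MetaXpress. Viability is the ratio of treated-well to vehicle-well nuclei, taken as a median over plates. Plates required control CV below 25% and at least one doubling.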
# Dasatinib = compound: Cc1nc(Nc2ncc(C(=O)Nc3c(C)cccc3Cl)s2)cc(N2CCN(CCO)CC2)n1 [Dasatinib]; assay: as above
# How it was run: as §1
Cell Line,relative viability (ALW-II-49-7; 0.08 µM),relative viability (ALW-II-49-7; 0.253 µM),relative viability (ALW-II-49-7; 0.8 µM),relative viability (ALW-II-49-7; 2.53 µM),relative viability (ALW-II-49-7; 8 µM),relative viability (Dasatinib; 0.005 µM),relative viability (Dasatinib; 0.01581 µM),relative viability (Dasatinib; 0.05 µM),"relative viability (Dasatinib; 0.075 µM, anchor plate)",relative viability (Dasatinib; 0.1581 µM),relative viability (Dasatinib; 0.5 µM)
201T,0.979,1.04,0.915,1.02,0.838,0.991,0.766,0.82,0.583,0.602,0.417
A549,1.08,0.966,0.891,1.02,0.947,0.989,0.85,0.914,–,0.626,0.346
A-427,0.962,1.02,0.952,1.01,0.93,0.983,0.889,0.811,0.698,0.634,0.623
ABC-1,0.938,0.999,0.923,0.973,0.941,0.905,0.862,0.785,0.641,0.564,0.654
BEN,1.04,1.01,0.728,0.825,0.902,0.776,0.552,0.487,0.322,0.423,0.376
CAL-12T,0.952,0.96,1.03,1.02,0.928,1.02,0.998,1.12,0.486,0.795,0.416
COR-L23,1.05,0.969,0.904,0.892,1.02,1.01,0.852,0.923,0.477,0.614,0.519
COR-L 105,0.822,1.05,0.968,0.942,0.893,0.847,0.692,0.625,0.386,0.39,0.326
Calu-6,0.952,1.03,0.947,0.891,0.869,0.895,0.766,0.712,–,0.627,0.554
ChaGo-K-1,1.03,0.96,0.909,0.974,1.01,0.967,0.976,0.897,0.597,0.859,0.686
EBC-1,0.93,0.93,0.79,1,0.697,1.03,0.893,0.894,–,0.831,0.736
EKVX,1.06,0.953,0.968,0.91,0.974,0.932,0.879,0.807,0.605,0.68,0.176
EMC-BAC-2,1.02,0.966,0.888,0.902,0.758,0.884,0.786,0.657,0.336,0.472,0.344
EPLC-272H,1.01,0.702,0.945,0.977,0.86,0.965,0.916,0.882,0.356,0.71,0.295
H3255,1.12,0.999,1.04,0.904,0.808,0.971,1,0.881,0.402,0.812,0.433
HARA,0.87,0.777,0.987,1.17,0.846,0.797,0.73,0.647,0.288,0.3,0.175
HCC-15,1.04,0.975,0.964,1.08,0.919,1.03,0.991,0.928,0.651,0.854,0.726
HCC-44,0.971,1.06,0.969,1.03,0.957,1.12,0.994,1.04,–,0.961,0.533
HCC-78,0.972,0.938,0.842,0.934,0.933,0.551,0.764,0.721,0.408,0.658,0.314
HCC-366,1.03,1.05,1.09,1.04,0.855,0.805,0.748,0.608,0.682,0.728,0.52
HCC-827,1.02,1.03,1.02,1.02,1.02,1.05,0.926,1.04,0.324,0.953,0.126

Cell Line,relative viability (ALW-II-49-7; 0.08 µM),relative viability (ALW-II-49-7; 0.253 µM),relative viability (ALW-II-49-7; 0.8 µM),relative viability (ALW-II-49-7; 2.53 µM),relative viability (ALW-II-49-7; 8 µM),relative viability (Dasatinib; 0.005 µM),relative viability (Dasatinib; 0.01581 µM),relative viability (Dasatinib; 0.05 µM),"relative viability (Dasatinib; 0.075 µM, anchor plate)",relative viability (Dasatinib; 0.1581 µM),relative viability (Dasatinib; 0.5 µM)
HOP-62,1.1,1.03,0.941,0.82,0.786,1.06,1,0.932,0.68,0.945,0.367
IA-LM,0.939,0.74,0.744,0.504,0.305,1.01,0.994,1,–,0.781,0.564
LC-2-ad,0.942,1.03,0.922,1.08,0.861,1,0.984,0.924,0.601,0.674,0.35
LCLC-97TM1,0.97,0.905,1.09,0.755,0.865,1.17,0.97,1.05,0.837,1,0.561
LCLC-103H,0.983,0.987,0.971,0.953,0.969,0.997,0.855,0.82,0.475,0.669,0.382
LK-2,1.03,0.971,1,–,0.926,0.943,0.569,0.587,0.311,0.297,0.257
LOU-NH91,0.939,1.03,0.951,0.654,0.837,0.839,0.893,0.724,0.558,0.587,0.422
LU99A,0.816,1.1,0.902,0.94,0.95,0.807,0.629,0.896,0.539,0.663,0.48
LXF-289,0.931,1.04,1.02,1.06,1.05,1.03,1.07,1.08,0.227,0.485,0.226
NCI-H23,0.936,0.978,0.907,1.06,0.865,0.923,0.857,0.858,0.866,0.6,0.482
NCI-H322M,0.879,1.08,0.957,0.906,0.805,0.892,0.827,0.526,0.257,0.319,0.216
NCI-H358,0.891,0.956,0.924,1.01,1.07,0.867,0.695,0.593,0.165,0.248,0.163
NCI-H441,1.2,0.868,0.913,0.902,0.762,1.03,0.997,1.11,0.675,0.636,0.338
NCI-H460,1,1.07,0.944,1.02,0.882,0.949,0.897,0.856,0.529,0.73,0.605
NCI-H520,1.04,0.987,0.987,0.94,0.964,0.785,0.592,0.518,0.21,0.257,0.243
NCI-H522,0.968,0.938,0.994,1.2,1.03,0.964,0.829,0.801,0.904,0.768,0.758
NCI-H596,0.913,0.988,0.941,0.893,0.829,0.978,0.788,0.736,0.631,0.551,0.453
NCI-H647,0.904,0.944,0.926,0.967,0.795,0.76,0.572,0.372,0.199,0.227,0.207
NCI-H650,0.992,0.997,0.841,1.03,0.647,0.876,0.936,0.861,0.475,0.712,0.5
NCI-H661,1.04,0.936,0.927,0.975,0.901,0.955,1.06,0.911,0.974,0.8,0.661
NCI-H727,1.09,0.907,0.9,0.902,0.855,0.724,0.678,0.53,0.37,0.388,0.256

Cell Line,relative viability (ALW-II-49-7; 0.08 µM),relative viability (ALW-II-49-7; 0.253 µM),relative viability (ALW-II-49-7; 0.8 µM),relative viability (ALW-II-49-7; 2.53 µM),relative viability (ALW-II-49-7; 8 µM),relative viability (Dasatinib; 0.005 µM),relative viability (Dasatinib; 0.01581 µM),relative viability (Dasatinib; 0.05 µM),"relative viability (Dasatinib; 0.075 µM, anchor plate)",relative viability (Dasatinib; 0.1581 µM),relative viability (Dasatinib; 0.5 µM)
NCI-H838,0.945,0.901,0.903,0.982,0.918,0.87,0.676,0.532,0.307,0.38,0.289
NCI-H1299,1.05,1.05,0.938,0.921,0.843,1.04,0.996,0.998,–,0.886,0.263
NCI-H1355,0.939,0.963,0.953,0.957,0.928,1,0.83,0.998,0.731,0.781,0.582
NCI-H1395,0.941,0.992,1.1,0.917,0.851,0.91,1.03,0.783,0.435,0.442,0.429
NCI-H1437,0.985,0.989,0.973,0.994,0.947,1.05,1.05,1.04,0.443,0.887,0.348
NCI-H1563,0.962,0.993,0.957,0.941,0.887,0.901,0.703,0.735,0.465,0.619,0.584
NCI-H1623,0.934,0.903,0.947,0.967,0.91,0.97,0.851,0.935,0.542,0.767,0.564
NCI-H1648,0.633,0.839,0.676,0.683,0.797,1.26,0.938,1.03,–,0.405,0.192
NCI-H1650,0.854,0.789,0.836,0.985,0.985,0.868,0.769,0.6,0.336,0.388,0.338
NCI-H1651,1.09,0.923,0.956,0.952,0.943,1.01,0.902,0.91,0.391,0.817,0.758
NCI-H1666,0.988,0.943,0.92,1.24,1.04,0.995,1,1.02,0.851,0.829,0.478
NCI-H1703,0.982,0.981,0.734,0.429,0.434,0.482,0.457,0.311,–,0.177,0.148
NCI-H1734,0.933,1.04,1.01,0.886,0.822,0.863,0.772,0.777,0.481,0.508,0.51
NCI-H1755,0.975,1.03,1.02,0.968,0.897,0.964,0.868,0.747,0.44,0.544,0.363
NCI-H1792,0.679,0.873,0.915,0.73,0.654,0.844,0.773,0.643,0.827,0.653,0.277
NCI-H1793,0.984,0.894,0.757,0.836,0.934,0.635,0.543,0.537,0.391,0.457,0.414
NCI-H1915,0.993,1.01,0.945,0.85,0.544,0.966,0.987,0.903,0.315,0.492,0.256
NCI-H1944,0.997,0.91,0.949,0.934,0.893,0.918,0.902,0.644,0.228,0.286,0.208
NCI-H1975,0.956,0.996,0.757,0.855,0.841,0.83,0.768,0.78,0.378,0.545,0.282
NCI-H1993,0.899,0.952,1.07,1.07,1.01,0.793,0.653,0.856,0.625,0.736,0.507
